Experimental data reported in ChEMBL document CHEMBL5653615 (J Biol Chem, 2013).
Blank lines part the entries; values can stand above or below the compound they belong to.

Assays:
[1] = target: T1, Dual serine/threonine and tyrosine protein kinase (Homo sapiens) (UniProt Q6XUX3); assay: Inhibition of human RIPK5 at 18.6 nM by HotSpot assay relative to control
T1 sequence (whole entry): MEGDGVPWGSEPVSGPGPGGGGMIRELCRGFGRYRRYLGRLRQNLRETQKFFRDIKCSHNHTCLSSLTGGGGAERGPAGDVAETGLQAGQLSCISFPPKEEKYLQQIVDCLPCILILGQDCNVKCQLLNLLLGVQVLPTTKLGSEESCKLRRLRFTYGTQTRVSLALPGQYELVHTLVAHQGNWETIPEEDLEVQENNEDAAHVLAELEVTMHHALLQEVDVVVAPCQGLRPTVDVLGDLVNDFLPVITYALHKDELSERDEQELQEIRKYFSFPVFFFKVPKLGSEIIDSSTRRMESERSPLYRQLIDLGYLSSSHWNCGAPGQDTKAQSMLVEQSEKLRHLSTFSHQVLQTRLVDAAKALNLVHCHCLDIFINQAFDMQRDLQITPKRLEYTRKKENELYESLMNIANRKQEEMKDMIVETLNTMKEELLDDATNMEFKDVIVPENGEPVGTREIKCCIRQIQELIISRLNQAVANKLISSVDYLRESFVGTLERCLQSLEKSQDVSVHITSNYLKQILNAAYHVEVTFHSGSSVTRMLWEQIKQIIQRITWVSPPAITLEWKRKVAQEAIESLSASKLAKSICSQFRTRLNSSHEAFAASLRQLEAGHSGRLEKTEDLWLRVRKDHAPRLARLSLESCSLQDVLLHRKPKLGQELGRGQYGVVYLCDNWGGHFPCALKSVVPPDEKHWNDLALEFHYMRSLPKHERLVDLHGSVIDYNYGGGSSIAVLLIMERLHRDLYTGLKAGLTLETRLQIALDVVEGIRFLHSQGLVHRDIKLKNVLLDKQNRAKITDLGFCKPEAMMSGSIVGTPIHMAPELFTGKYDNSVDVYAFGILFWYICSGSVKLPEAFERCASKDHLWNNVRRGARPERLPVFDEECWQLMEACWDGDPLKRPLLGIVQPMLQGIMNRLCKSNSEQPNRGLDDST

[2] = target: Cyclin-dependent kinase 1/cyclin B1 (Homo sapiens) (UniProt P06493+P14635); assay: Inhibition of human CDK1/cyclin B at 1.82 nM by HotSpot assay relative to control; format: protein-complex assay
Sequence of Cyclin-dependent kinase 1/cyclin B1 (Homo sapiens) (P06493 whole entry, looked up): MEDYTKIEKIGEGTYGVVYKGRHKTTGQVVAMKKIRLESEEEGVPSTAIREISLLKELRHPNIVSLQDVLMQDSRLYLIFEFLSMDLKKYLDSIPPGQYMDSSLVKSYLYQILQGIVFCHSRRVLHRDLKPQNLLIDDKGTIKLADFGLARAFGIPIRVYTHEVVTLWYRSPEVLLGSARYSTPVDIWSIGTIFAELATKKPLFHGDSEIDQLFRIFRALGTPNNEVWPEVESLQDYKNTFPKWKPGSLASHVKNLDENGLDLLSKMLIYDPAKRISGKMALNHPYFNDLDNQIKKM
Sequence of Cyclin-dependent kinase 1/cyclin B1 (Homo sapiens) (P14635 whole entry, looked up): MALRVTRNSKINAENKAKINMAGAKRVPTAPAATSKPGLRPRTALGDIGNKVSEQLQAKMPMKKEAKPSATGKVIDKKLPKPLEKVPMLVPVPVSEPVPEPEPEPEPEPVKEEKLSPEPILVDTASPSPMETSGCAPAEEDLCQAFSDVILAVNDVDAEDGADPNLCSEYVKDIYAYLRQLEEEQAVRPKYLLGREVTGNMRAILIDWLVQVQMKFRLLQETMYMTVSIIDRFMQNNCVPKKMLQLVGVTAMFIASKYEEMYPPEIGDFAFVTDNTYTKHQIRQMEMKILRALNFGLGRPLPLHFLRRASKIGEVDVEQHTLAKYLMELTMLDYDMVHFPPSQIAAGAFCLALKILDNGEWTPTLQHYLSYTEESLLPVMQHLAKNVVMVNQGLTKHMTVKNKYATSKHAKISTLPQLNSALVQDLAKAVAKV

[3] = target: T2, Serine/threonine-protein kinase Nek9 (Homo sapiens) (UniProt Q8TD19); assay: Inhibition of human NEK9 at 1.82 nM by HotSpot assay relative to control
T2 sequence (whole entry): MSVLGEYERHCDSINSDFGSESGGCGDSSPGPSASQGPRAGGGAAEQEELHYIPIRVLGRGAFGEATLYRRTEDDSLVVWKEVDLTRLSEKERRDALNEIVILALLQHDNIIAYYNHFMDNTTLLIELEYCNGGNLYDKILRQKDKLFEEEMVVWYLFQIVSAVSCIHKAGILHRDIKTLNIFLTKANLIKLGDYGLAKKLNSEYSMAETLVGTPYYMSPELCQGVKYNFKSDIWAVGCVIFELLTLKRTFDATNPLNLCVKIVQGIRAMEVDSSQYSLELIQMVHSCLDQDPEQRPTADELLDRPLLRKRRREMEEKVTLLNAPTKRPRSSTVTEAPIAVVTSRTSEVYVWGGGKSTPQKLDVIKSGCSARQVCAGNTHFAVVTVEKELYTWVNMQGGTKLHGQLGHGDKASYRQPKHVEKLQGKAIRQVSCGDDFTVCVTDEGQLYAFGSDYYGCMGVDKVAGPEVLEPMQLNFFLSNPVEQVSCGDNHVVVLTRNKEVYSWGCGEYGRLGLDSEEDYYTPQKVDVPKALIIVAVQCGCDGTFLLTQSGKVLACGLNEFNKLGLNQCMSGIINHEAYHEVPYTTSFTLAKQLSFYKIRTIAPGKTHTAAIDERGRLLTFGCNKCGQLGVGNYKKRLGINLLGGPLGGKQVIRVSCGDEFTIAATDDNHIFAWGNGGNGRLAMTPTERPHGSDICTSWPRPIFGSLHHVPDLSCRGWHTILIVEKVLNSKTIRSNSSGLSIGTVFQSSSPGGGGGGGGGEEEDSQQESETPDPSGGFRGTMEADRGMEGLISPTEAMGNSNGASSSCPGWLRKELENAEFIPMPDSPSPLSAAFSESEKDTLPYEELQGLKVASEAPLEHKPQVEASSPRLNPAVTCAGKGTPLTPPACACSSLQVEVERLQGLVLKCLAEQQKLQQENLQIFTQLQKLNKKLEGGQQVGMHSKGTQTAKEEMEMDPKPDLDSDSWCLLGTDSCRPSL

[4] = target: Tyrosine-protein kinase CSK (Homo sapiens) (UniProt P41240); assay: Inhibition of human CSK at 1.82 nM by HotSpot assay relative to control
Sequence of Tyrosine-protein kinase CSK (Homo sapiens) (P41240 2-450 limits assumed): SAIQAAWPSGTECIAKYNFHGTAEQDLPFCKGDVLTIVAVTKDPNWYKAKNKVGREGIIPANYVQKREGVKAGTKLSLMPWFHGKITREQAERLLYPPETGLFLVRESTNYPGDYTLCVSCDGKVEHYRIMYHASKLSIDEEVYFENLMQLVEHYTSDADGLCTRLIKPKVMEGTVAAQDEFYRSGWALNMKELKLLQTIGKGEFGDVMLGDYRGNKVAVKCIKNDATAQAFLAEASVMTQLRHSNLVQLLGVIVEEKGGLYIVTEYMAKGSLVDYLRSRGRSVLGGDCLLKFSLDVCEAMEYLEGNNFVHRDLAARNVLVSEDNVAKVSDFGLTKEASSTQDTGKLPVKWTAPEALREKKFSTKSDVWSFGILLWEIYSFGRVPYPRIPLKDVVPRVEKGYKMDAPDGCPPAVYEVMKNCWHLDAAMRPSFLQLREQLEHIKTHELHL

[5] = target: T3, Protein kinase C zeta type (Homo sapiens) (UniProt Q05513); assay: Inhibition of human PKCzeta at 500 nM by HotSpot assay relative to control
T3 sequence (whole entry): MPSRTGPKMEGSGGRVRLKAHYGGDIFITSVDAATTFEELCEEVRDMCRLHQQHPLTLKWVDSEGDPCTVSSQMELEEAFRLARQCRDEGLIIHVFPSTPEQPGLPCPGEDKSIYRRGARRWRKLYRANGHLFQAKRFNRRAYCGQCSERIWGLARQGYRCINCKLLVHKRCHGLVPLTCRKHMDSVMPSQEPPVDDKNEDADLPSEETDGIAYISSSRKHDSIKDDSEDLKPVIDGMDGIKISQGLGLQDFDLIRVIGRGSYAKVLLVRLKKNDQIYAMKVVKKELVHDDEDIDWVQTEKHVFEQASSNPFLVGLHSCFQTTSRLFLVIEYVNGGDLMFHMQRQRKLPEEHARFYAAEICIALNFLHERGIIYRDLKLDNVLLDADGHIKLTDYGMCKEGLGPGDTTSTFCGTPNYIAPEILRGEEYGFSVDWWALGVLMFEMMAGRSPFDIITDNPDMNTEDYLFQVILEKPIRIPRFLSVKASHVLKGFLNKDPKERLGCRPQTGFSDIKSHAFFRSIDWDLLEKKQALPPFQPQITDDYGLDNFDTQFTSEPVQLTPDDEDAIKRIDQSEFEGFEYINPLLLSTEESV

inhibition [1]: -0.63%
SMILES: C[C@]1(O)C[C@@H](c2nc(-c3ccc4ccc(-c5ccccc5)nc4c3)c3c(N)nccn32)C1

inhibition [2]: 0.77% | inhibition [4]: 3.45%
SMILES: C[C@@]1(C(=O)Nc2ccc(F)nc2)CCCN1c1nc(Nc2cc(C3CC3)n[nH]2)c2cccn2n1
inhibition [3]: -1.18%

SMILES: Nc1n[nH]c2nnc(-c3c(-c4ccccc4)nn4ccccc34)cc12
inhibition [5]: 16.1%
